Laboratory results from ChEMBL document CHEMBL1201862, “PubChem BioAssay data set” (2004).
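Following 48 hours of exposure in 96-well plates, responses at five concentrations were used to interpolate endpoints linearly. Abbreviation: GI50, concentration required for 50% inhibition of growth.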 Activity calls are given as the source filed them. Rule as the data show it: active = GI50 up to about 1.1 µM and inactive = higher.

Tests used:
Assay in all cases: DTP human tumour cell line panel, 48 h
786-0 = test system: 786-0
A498 = test system: A498
A549 = test system: A549
ACHN = test system: ACHN
BT-549 = test system: BT-549
CAKI-1 = test system: CAKI-1
COLO 205 = test system: COLO 205
DU-145 = test system: DU-145
HCC 2998 = test system: HCC 2998
HCT-116 = test system: HCT-116
HCT-15 = test system: HCT-15
HL-60 = test system: HL-60
HOP-62 = test system: HOP-62
HOP-92 = test system: HOP-92
HT-29 = test system: HT-29
Hs-578T = test system: Hs-578T
IGROV-1 = test system: IGROV-1
KM12 = test system: KM12
LOX IMVI = test system: LOX IMVI
M14 = test system: M14
MCF7 = test system: MCF7
MDA-MB-231 = test system: MDA-MB-231
MDA-MB-435 = test system: MDA-MB-435
MDA-N = test system: MDA-N
Malme-3M = test system: Malme-3M
NCI-H226 = test system: NCI-H226
NCI-H23 = test system: NCI-H23
NCI-H460 = test system: NCI-H460
NCI-H522 = test system: NCI-H522
NCI/ADR-RES = test system: NCI/ADR-RES
OVCAR-3 = test system: OVCAR-3
OVCAR-4 = test system: OVCAR-4
OVCAR-5 = test system: OVCAR-5
OVCAR-8 = test system: OVCAR-8
PC-3 = test system: PC-3
RPMI-8226 = test system: RPMI-8226
RXF 393 = test system: RXF 393
SF-268 = test system: SF-268
SF-295 = test system: SF-295
SF-539 = test system: SF-539
SK-MEL-2 = test system: SK-MEL-2
SK-MEL-5 = test system: SK-MEL-5
SK-OV-3 = test system: SK-OV-3
SNB-19 = test system: SNB-19
SNB-75 = test system: SNB-75
SW-620 = test system: SW-620
T47D = test system: T47D
TK-10 = test system: TK-10
U-251 = test system: U-251
UACC-257 = test system: UACC-257
UACC-62 = test system: UACC-62
UO-31 = test system: UO-31
CCRF-CEM = test system: CCRF-CEM
EKVX = test system: EKVX
MOLT-4 = test system: MOLT-4
SK-MEL-28 = test system: SK-MEL-28
SN12C = test system: SN12C
K562 = test system: K562

For `COc1cc([C@@H]2c3cc4c(cc3[C@H](OC3OC5COC(c6ccco6)OC5C(O)C3O)C3COC(=O)[C@@H]32)OCO4)cc(OC)c1OC` (stereo partly specified), the GI50 (786-0) was 3.3 µM (inactive), the GI50 (A498) was 2.29 µM (inactive) and the GI50 (A549) was 3.79 µM (inactive). For the same compound, the GI50 (ACHN) was 4.6 µM (inactive), the GI50 (BT-549) was 3.21 µM (inactive) and the GI50 (CAKI-1) was 5.35 µM (inactive). For the same compound, the GI50 (COLO 205) was 4.06 µM (inactive), the GI50 (DU-145) was 3.15 µM (inactive) and the GI50 (HCC 2998) was 4 µM (inactive). The GI50 (HCT-116) was 3.27 µM (inactive), the GI50 (HCT-15) was 3.2 µM and the GI50 (HL-60) was 4.05 µM (inactive). For the same compound, the GI50 (HOP-62) was 7.89 µM (inactive), the GI50 (HOP-92) was 9.93 µM (inactive) and the GI50 (HT-29) was 2.8 µM (inactive). The GI50 (Hs-578T) was 5.01 µM (inactive), the GI50 (IGROV-1) was 3.56 µM (inactive) and the GI50 (KM12) was 4.48 µM (inactive). For the same compound, the GI50 (LOX IMVI) was 4.06 µM (inactive), the GI50 (M14) was 4.44 µM (inactive) and the GI50 (MCF7) was 3.85 µM (inactive). The GI50 (MDA-MB-231) was 4.43 µM (inactive), the GI50 (MDA-MB-435) was 3.59 µM (inactive) and the GI50 (MDA-N) was 2.04 µM (inactive). For the same compound, the GI50 (Malme-3M) was 22.3 µM (inactive), the GI50 (NCI-H226) was 4.17 µM (inactive) and the GI50 (NCI-H23) was 3.56 µM (inactive). The GI50 (NCI-H460) was 2.16 µM (inactive), the GI50 (NCI-H522) was 8.34 µM (inactive) and the GI50 (NCI/ADR-RES) was 9.93 µM (inactive). The GI50 (OVCAR-3) was 3.21 µM (inactive), the GI50 (OVCAR-4) was 41.6 µM (inactive) and the GI50 (OVCAR-5) was 7.66 µM (inactive). For the same compound, the GI50 (OVCAR-8) was 14.2 µM (inactive), the GI50 (PC-3) was 3.48 µM (inactive) and the GI50 (RPMI-8226) was 7.01 µM (inactive). The GI50 (RXF 393) was 2.82 µM (inactive), the GI50 (SF-268) was 8.2 µM (inactive) and the GI50 (SF-295) was 3.67 µM (inactive). The GI50 (SF-539) was 2.74 µM (inactive), the GI50 (SK-MEL-2) was 9.31 µM (inactive) and the GI50 (SK-MEL-5) was 4.21 µM (inactive). The GI50 (SK-OV-3) was > 19.9 µM (inactive), the GI50 (SNB-19) was 3.9 µM (inactive) and the GI50 (SNB-75) was > 100 µM (inactive). For the same compound, the GI50 (SW-620) was 3.5 µM (inactive), the GI50 (T47D) was 13.4 µM (inactive) and the GI50 (TK-10) was > 100 µM (inactive). For the same compound, the GI50 (U-251) was 3.18 µM (inactive), the GI50 (UACC-257) was 5.24 µM (inactive) and the GI50 (UACC-62) was 4.73 µM (inactive). For the same compound, the GI50 (UO-31) was 25.9 µM (inactive).
For `C1CC2=C(C1)[Se]C(=C1Sc3nsnc3S1)[Se]2`, the GI50 (786-0) was > 100 µM (inactive), the GI50 (A549) was > 100 µM (inactive) and the GI50 (ACHN) was > 100 µM (inactive). The GI50 (BT-549) was > 100 µM (inactive), the GI50 (CAKI-1) was > 100 µM (inactive) and the GI50 (CCRF-CEM) was > 100 µM (inactive). For the same compound, the GI50 (COLO 205) was > 100 µM (inactive), the GI50 (DU-145) was > 100 µM (inactive) and the GI50 (EKVX) was > 100 µM (inactive). The GI50 (HCC 2998) was > 100 µM (inactive), the GI50 (HCT-116) was > 100 µM (inactive) and the GI50 (HCT-15) was 48.3 µM. For the same compound, the GI50 (HOP-62) was > 100 µM (inactive), the GI50 (HOP-92) was > 100 µM (inactive) and the GI50 (HT-29) was > 100 µM (inactive). The GI50 (Hs-578T) was > 100 µM (inactive), the GI50 (IGROV-1) was > 100 µM (inactive) and the GI50 (KM12) was > 100 µM (inactive). The GI50 (LOX IMVI) was > 100 µM (inactive), the GI50 (M14) was > 100 µM (inactive) and the GI50 (MCF7) was > 100 µM (inactive). For the same compound, the GI50 (MDA-MB-231) was > 100 µM (inactive), the GI50 (MDA-MB-435) was 39 µM (inactive) and the GI50 (MDA-N) was 21.7 µM (inactive). For the same compound, the GI50 (MOLT-4) was > 100 µM (inactive), the GI50 (Malme-3M) was 71.3 µM (inactive) and the GI50 (NCI-H226) was > 100 µM (inactive). For the same compound, the GI50 (NCI-H23) was > 100 µM (inactive), the GI50 (NCI-H460) was > 100 µM (inactive) and the GI50 (NCI-H522) was > 100 µM (inactive). For the same compound, the GI50 (NCI/ADR-RES) was > 100 µM (inactive), the GI50 (OVCAR-3) was > 100 µM (inactive) and the GI50 (OVCAR-4) was > 100 µM (inactive). For the same compound, the GI50 (OVCAR-5) was > 100 µM (inactive), the GI50 (OVCAR-8) was > 100 µM (inactive) and the GI50 (PC-3) was > 100 µM (inactive). For the same compound, the GI50 (RPMI-8226) was > 100 µM (inactive), the GI50 (SF-268) was > 100 µM (inactive) and the GI50 (SF-295) was > 100 µM (inactive). For the same compound, the GI50 (SF-539) was > 100 µM (inactive), the GI50 (SK-MEL-28) was > 100 µM (inactive) and the GI50 (SK-MEL-2) was > 100 µM (inactive). For the same compound, the GI50 (SK-MEL-5) was > 100 µM (inactive), the GI50 (SK-OV-3) was > 100 µM (inactive) and the GI50 (SN12C) was > 100 µM (inactive). The GI50 (SNB-19) was > 100 µM (inactive), the GI50 (SNB-75) was > 100 µM (inactive) and the GI50 (SW-620) was > 100 µM (inactive). For the same compound, the GI50 (T47D) was > 100 µM (inactive), the GI50 (TK-10) was > 100 µM (inactive) and the GI50 (U-251) was > 100 µM (inactive). For the same compound, the GI50 (UACC-257) was > 100 µM (inactive), the GI50 (UACC-62) was > 100 µM (inactive) and the GI50 (UO-31) was > 100 µM (inactive).
For `O=[N+]([O-])c1cc(Cl)cnc1Br`, the GI50 (786-0) was 5.83 µM (inactive), the GI50 (A498) was 17.1 µM (inactive) and the GI50 (A549) was 2.67 µM (inactive). For the same compound, the GI50 (ACHN) was 2.09 µM (inactive), the GI50 (BT-549) was 3.18 µM (inactive) and the GI50 (CAKI-1) was 1.86 µM (inactive). The GI50 (CCRF-CEM) was 4.32 µM (inactive), the GI50 (COLO 205) was 1.34 µM (inactive) and the GI50 (DU-145) was 3.71 µM (inactive). For the same compound, the GI50 (EKVX) was 4.19 µM (inactive), the GI50 (HCC 2998) was 1.37 µM (inactive) and the GI50 (HCT-116) was 4.42 µM (inactive). The GI50 (HCT-15) was 2.25 µM, the GI50 (HL-60) was 3.44 µM (inactive) and the GI50 (HOP-62) was 18.3 µM (inactive). The GI50 (HOP-92) was 8.75 µM (inactive), the GI50 (HT-29) was 3.28 µM (inactive) and the GI50 (Hs-578T) was 7.16 µM (inactive). The GI50 (IGROV-1) was 2.22 µM (inactive), the GI50 (K562) was 2.64 µM (inactive) and the GI50 (KM12) was 4.03 µM (inactive). The GI50 (LOX IMVI) was 1.22 µM (inactive), the GI50 (M14) was 3.87 µM (inactive) and the GI50 (MCF7) was 1.32 µM (inactive). The GI50 (MDA-MB-231) was 3.45 µM (inactive), the GI50 (MDA-MB-435) was 2.23 µM (inactive) and the GI50 (MDA-N) was 3.33 µM (inactive). For the same compound, the GI50 (MOLT-4) was 1.25 µM (inactive), the GI50 (Malme-3M) was 10.9 µM (inactive) and the GI50 (NCI-H226) was 2.61 µM (inactive). For the same compound, the GI50 (NCI-H23) was 5.52 µM (inactive), the GI50 (NCI-H460) was 3.95 µM (inactive) and the GI50 (NCI/ADR-RES) was 2.14 µM (inactive). The GI50 (OVCAR-3) was 2.38 µM (inactive), the GI50 (OVCAR-4) was 2.28 µM (inactive) and the GI50 (OVCAR-5) was 3.27 µM (inactive). For the same compound, the GI50 (OVCAR-8) was 2.12 µM (inactive), the GI50 (PC-3) was 7.53 µM (inactive) and the GI50 (RPMI-8226) was 2.84 µM (inactive). The GI50 (RXF 393) was 1.52 µM (inactive), the GI50 (SF-268) was 2.64 µM (inactive) and the GI50 (SF-295) was 3.4 µM (inactive). The GI50 (SF-539) was 2.05 µM (inactive), the GI50 (SK-MEL-28) was 3.33 µM (inactive) and the GI50 (SK-MEL-5) was 2.4 µM (inactive). The GI50 (SK-OV-3) was 10.3 µM (inactive), the GI50 (SN12C) was 2.92 µM (inactive) and the GI50 (SNB-19) was 9.71 µM (inactive). The GI50 (SW-620) was 3.42 µM (inactive), the GI50 (T47D) was 3.1 µM (inactive) and the GI50 (TK-10) was 3.22 µM (inactive). The GI50 (U-251) was 2.16 µM (inactive), the GI50 (UACC-257) was 9.48 µM (inactive) and the GI50 (UACC-62) was 1.93 µM (inactive). For the same compound, the GI50 (UO-31) was 1.76 µM (inactive).
